# Experimental data from paper doi:10.1101/2024.08.19.608619, “Discovery of potent SARS-CoV-2 nsp3 macrodomain inhibitors uncovers lack of translation to cellular antiviral response” (bioRxiv, 2024).
# Several values for one entry are separate records, joined by “and”; a condition that tells them apart may be missing. Equal values may be shown once.
# Tests used:
# LogD = conditions: pH 7.4; In vitro LogD
# in vitro = conditions: human, hela-ace2 cells, 50.0
# [1] = Permeability Papp (AB) MDR1/MDCKII; conditions: for papp_a_to_b_mean / perc_recovery_a_to_b_mean / papp_b_to_a_mean / efflux_ratio / perc_recovery_b_to_a_mean: In vitro MDR1-MDCKII permeability; for papp_a_to_b_mean: A to B; for perc_recovery_a_to_b_mean / perc_recovery_a_to_b_inhibitor_mean: recovery A to B; for perc_recovery_b_to_a_mean / perc_recovery_b_to_a_inhibitor_mean: recovery B to A
# [2] = In vitro kinetic solubility; conditions: In vitro kinetic solubility, ph 7.4
# [3] = Hepatic microsomal stability, MLM; assay type: in vitro ADME
# [4] = test system: SARS-CoV-2, isolate USA-WA1/2020; test: microbe, parasite or virus in culture; assay type: cell-based; conditions: HeLa-ACE2 SARS-CoV-2 antiviral effect without P-gp inhibitor; for perc_max_measured: maximum measured response of dose series; for perc_min_measured: minimum measured response of dose series; for EC50: read-out: ec50; for EC90: read-out: ec90
# HeLa-ACE2 cells = conditions: HeLa-ACE2 cytotoxicity; for perc_max_measured: highest measured response of the dose series; for perc_min_measured: lowest measured response of the dose series
# [5] = Hepatic microsomal stability, HLM; assay type: in vitro ADME, human; conditions: In vitro human liver microsomal stability; for perc_remaining_no_cofactor: no cofactor
# [6] = In vitro mouse liver microsomal stability
# [7] = MDR1-MDCKII, with inhibitor Cyclosporin A
# [8] = MDR1-MDCKII, with inhibitor Verapamil
# [9] = In vitro mouse liver microsomal stability, no cofactor
SMILES,logd (LogD),CC50 at 24 h (in vitro),papp_a_to_b_mean ([1]; mean),solubility_mean [2],"clint [3, 6]","perc_remaining [3, 6]","t_half [3, 6]",perc_max_measured [4],perc_min_measured [4],EC50 [4],EC90 [4],CC50 (HeLa-ACE2 cells),cc10 (HeLa-ACE2 cells),perc_max_measured (HeLa-ACE2 cells),perc_min_measured (HeLa-ACE2 cells),clint [5],perc_remaining [5],t_half [5],perc_remaining_no_cofactor [5],"perc_remaining_no_cofactor [3, 9]",also measured
CC(C)[C@@H](Nc1ncnc2[nH]c(-c3cnn(CC(=O)N(C)C)c3)cc12)c1ccc2c(c1)S(=O)(=O)CCC2 (racemic) [ASAP-0008668],2.1,> 20 µM,0.67 ×10⁻⁶ cm/s,38 µM,68.0 µL/min/mg,31.0%,24.6 min,98.615%,84.991%,> 20 µM,> 20 µM,> 20 µM,> 20.0 µM,99.837%,68.704%,106.0 µL/min/mg,18.0%,15.8 min,92.0%,,perc_recovery_a_to_b_mean ([1]; mean): 85.0%; perc_remaining_no_cofactor ([3]; In vitro mouse liver microsomal stability; no cofactor): 92.0%
CCNC(=O)c1cc2c(N[C@@H](c3ccc4c(c3)S(=O)(=O)CCO4)C(C)C)ncnc2[nH]1 (racemic) [ASAP-0012317],2.9,> 20 µM,,328 µM,26.0 µL/min/mg,66.0%,65.5 min,111.753%,79.377%,> 20 µM,> 20 µM,> 20 µM,> 20.0 µM,105.961%,74.573%,64.0 µL/min/mg,33.0%,26.2 min,95.0%,99.0%,"papp_b_to_a_mean ([1]; B to A, no inhibitor): 1.5 ×10⁻⁶ cm/s and 1.4 ×10⁻⁶ cm/s; efflux_ratio ([1]; no inhibitor): 20.3 and 15.3; perc_recovery_a_to_b_mean ([1]; no inhibitor): 71.9% and 74.3% and 65.2%; perc_recovery_b_to_a_mean ([1]; no inhibitor): 68.3% and 88.2%; papp_b_to_a_inhibitor_mean ([1]; MDR1-MDCKII, B to A, with inhibitor Verapamil): 1.5 ×10⁻⁶ cm/s; perc_recovery_a_to_b_inhibitor_mean [1, 7]: 82.7%; perc_recovery_a_to_b_inhibitor_mean [1, 8]: 92.9%; perc_recovery_b_to_a_inhibitor_mean [1, 7]: 89.0%; perc_recovery_b_to_a_inhibitor_mean [1, 8]: 90.3%"
"CC(C)[C@@H](Nc1ncnc2[nH]ccc12)c1ccc2c(c1)S(=O)(=O)CCC2 (single isomer, unassigned) [ASAP-0008676]",2.5,> 20 µM,,386 µM,55.0 µL/min/mg,41.0%,30.4 min,117.108%,66.698%,> 20 µM,> 20 µM,> 20 µM,> 20.0 µM,101.14%,87.391%,21.0 µL/min/mg,69.0%,78.6 min,99.0%,117.0%,"papp_b_to_a_mean ([1]; B to A, no inhibitor): 7.1 ×10⁻⁶ cm/s and 4.9 ×10⁻⁶ cm/s; efflux_ratio ([1]; no inhibitor): 47.7 and 54.4; perc_recovery_a_to_b_mean ([1]; no inhibitor): 75.4% and 74.2% and 91.3%; perc_recovery_b_to_a_mean ([1]; no inhibitor): 80.0% and 74.5%; perc_recovery_a_to_b_inhibitor_mean [1, 7]: 72.2%; perc_recovery_a_to_b_inhibitor_mean [1, 8]: 82.4%; perc_recovery_b_to_a_inhibitor_mean [1, 7]: 63.3%; perc_recovery_b_to_a_inhibitor_mean [1, 8]: 89.1%"
"CC(C)[C@H](Nc1ncnc2[nH]c(-c3cnn(C)c3C#N)cc12)c1ccc2c(c1)S(=O)(=O)CCC2 (single isomer, unassigned) [ASAP-0011144]",3.3,> 20 µM,4.33 ×10⁻⁶ cm/s,22 µM,311.0 µL/min/mg,1.0%,5.4 min,129.006%,5.734%,6.21 µM,7.19 µM,> 20 µM,> 20.0 µM,100.779%,87.504%,935.0 µL/min/mg,0.0%,1.8 min,101.0%,90.0%,"papp_a_to_b_mean ([1]; no inhibitor): 0.109 ×10⁻⁶ cm/s and 0.101 ×10⁻⁶ cm/s; papp_b_to_a_mean ([1]; B to A, no inhibitor): 6.0 ×10⁻⁶ cm/s and 7.2 ×10⁻⁶ cm/s; efflux_ratio ([1]; no inhibitor): 54.9 and 71.8; perc_recovery_a_to_b_mean ([1]; mean): 71.4%; perc_recovery_a_to_b_mean ([1]; no inhibitor): 95.4% and 83.3%; perc_recovery_b_to_a_mean ([1]; no inhibitor): 82.4% and 102.0%; perc_recovery_a_to_b_inhibitor_mean [1, 7]: 78.3%; perc_recovery_a_to_b_inhibitor_mean [1, 8]: 84.6%; perc_recovery_b_to_a_inhibitor_mean [1, 7]: 76.3%; perc_recovery_b_to_a_inhibitor_mean [1, 8]: 95.9%"
"CNCc1cc(-c2cc3c(N[C@H](c4ccc5c(c4)S(=O)(=O)CCC5)C(C)C)ncnc3[nH]2)co1 (single isomer, unassigned) [ASAP-0011169]",2.1,> 20 µM,0.483 ×10⁻⁶ cm/s,358 µM,40.0 µL/min/mg,51.0%,41.8 min,94.818%,27.713%,11.1 µM,> 20 µM,> 20 µM,> 20.0 µM,96.832%,86.562%,67.0 µL/min/mg,33.0%,25.1 min,98.0%,96.0%,perc_recovery_a_to_b_mean ([1]; mean): 63.8%
"CC(C)[C@H](Nc1ncnc2[nH]c(-c3cnn(C)c3C#N)cc12)c1ccc2c(n1)NC(=O)CO2 (single isomer, unassigned) [ASAP-0011177]",3.7,> 20 µM,9.35 ×10⁻⁶ cm/s,28 µM,131.0 µL/min/mg,12.0%,12.8 min,70.604%,3.388%,0.858 µM,> 20 µM,> 20 µM,> 20.0 µM,109.886%,55.576%,137.0 µL/min/mg,10.0%,12.2 min,92.0%,85.0%,"papp_a_to_b_mean ([1]; no inhibitor): 0.0964 ×10⁻⁶ cm/s; papp_b_to_a_mean ([1]; B to A, no inhibitor): 6.5 ×10⁻⁶ cm/s; efflux_ratio ([1]; no inhibitor): 67.2; perc_recovery_a_to_b_mean ([1]; mean): 80.2%; perc_recovery_a_to_b_mean ([1]; no inhibitor): 69.4%; perc_recovery_b_to_a_mean ([1]; no inhibitor): 79.8%; perc_recovery_a_to_b_inhibitor_mean [1, 8]: 78.2%; perc_recovery_b_to_a_inhibitor_mean [1, 8]: 81.1%"
"CC(C)[C@@H](Nc1ncnc2[nH]c(-c3cnn(C)c3C#N)cc12)c1ccc2c(n1)NC(=O)CO2 (single isomer, unassigned) [ASAP-0011180]",3.7,> 20 µM,9.64 ×10⁻⁶ cm/s,28 µM,189.0 µL/min/mg,5.0%,8.8 min,122.922%,8.802%,2.46 µM,5.57 µM,> 20 µM,> 20.0 µM,104.887%,81.763%,51.0 µL/min/mg,43.0%,32.6 min,98.0%,92.0%,perc_recovery_a_to_b_mean ([1]; mean): 84.8%
C[C@@H](C(=O)O)[C@H](NC(=O)c1ncnc2[nH]ccc12)c1ccc(Br)cc1 [ASAP-0014726],,> 20 µM,,,,,,129.968%,44.709%,,,> 20 µM,> 20.0 µM,106.212%,72.067%,,,,,,
COc1ccc([C@@H](Cc2nnn[nH]2)NC(=O)c2ncnc3[nH]ccc23)cc1 [ASAP-0015384],,> 20 µM,,,,,,136.92%,93.837%,> 20 µM,> 20 µM,> 20 µM,> 20.0 µM,99.805%,83.484%,,,,,,
